# Results as given in patent US12129223B2, “Lipids for use in lipid nanoparticle formulations” (Acuitas Therapeutics, Inc., priority 2021, dated 2024).
# Assays:
# [1] = tested on: luciferase expression in the liver; experiment: Luciferase mRNA in vivo evaluation using lipid nanoparticle compositions; design: species or system mice; conditions: LNP with FLuc mRNA, tail vein injection; for Liver Luc @ 0.3 mg/kg: 0.3 mg mRNA/kg; for Liver Luc @ 0.3 mg/kg / Liver Luc @ 1.0 mg/kg: ng luciferase/g liver 4 hours after administration; for Liver Luc @ 1.0 mg/kg: 1.0 mg mRNA/kg; for Liver Luc, *Determined at 0.5 mg/kg: 0.5 mg mRNA/kg (starred cells of the 0.3 mg/kg column), liver 4 hours after administration
# Protocol: A lipid of structure (I), DSPC, cholesterol and PEG-lipid are solubilized in ethanol at a molar ratio of 50:10:38.5:1.5 or 47.5:10:40.7:1.8. Lipid nanoparticles (LNP) are prepared at a total lipid to mRNA weight ratio of approximately 10:1 to 40:1. Briefly, the mRNA is diluted to 0.2 mg/mL in 10 to 50 mM citrate buffer, pH 4 or 10 to 25 mM acetate buffer, pH 4. Syringe pumps are used to mix the ethanolic lipid solution with the mRNA aqueous solution at a ratio of about 1:5 to 1:3 (vol/vol) with total flow rates above 15 mL/min. The ethanol is then removed and the external buffer replaced with PBS by dialysis. Finally, the lipid nanoparticles are filtered through a 0.2 µm pore sterile filter.
# Studies are performed in 6-8 week old female C57BL/6 mice (Charles River) 8-10 week old CD-1 (Harlan) mice (Charles River) according to guidelines established by an institutional animal care committee (ACC) and the Canadian Council on Animal Care (CCAC). Varying doses of mRNA-lipid nanoparticle are systemically administered by tail vein injection and animals euthanized at a specific time point (e.g., 4 hours) post-administration. Liver and spleen are collected in pre-weighed tubes, weights determined, immediately snap frozen in liquid nitrogen and stored at −80° C. until processing for analysis.
# For liver, approximately 50 mg is dissected for analyses in a 2 mL FastPrep tubes (MP Biomedicals, Solon OH). ¼″ ceramic sphere (MP Biomedicals) is added to each tube and 500 μL of Glo Lysis Buffer—GLB (Promega, Madison WI) equilibrated to room temperature is added to liver tissue. Liver tissues are homogenized with the FastPrep24 instrument (MP Biomedicals) at 2×6.0 m/s for 15 seconds. Homogenate is incubated at room temperature for 5 minutes prior to a 1:4 dilution in GLB and assessed using SteadyGlo Luciferase assay system (Promega). Specifically, 50 μL of diluted tissue homogenate is reacted with 50 μL of SteadyGlo substrate, shaken for 10 seconds followed by 5 minute incubation and then quantitated using a CentroXS^3 LB 960 luminometer (Berthold Technologies, Germany). The amount of protein assayed is determined by using the BCA protein assay kit (Pierce, Rockford, IL). Relative luminescence units (RLU) are then normalized to total μg protein assayed. To convert RLU to ng luciferase a standard curve is generated with QuantiLum Recombinant Luciferase (Promega).
# The FLuc mRNA (L-6107) from Trilink Biotechnologies will express a luciferase protein, originally isolated from the firefly, Photinus pyralis. FLuc is commonly used in mammalian cell culture to measure both gene expression and cell viability. It emits bioluminescence in the presence of the substrate, luciferin. This capped and polyadenylated mRNA is fully substituted with 5-methylcytidine and pseudouridine.
# Representative compounds of the disclosure shown in Table 2 were formulated using the following molar ratio: 50% cationic lipid/10% distearoylphosphatidylcholine (DSPC)/38.5% Cholesterol/1.5% PEG lipid 2-[2-(ω-methoxy(polyethyleneglycol2000)ethoxy]-N,N-ditetradecyl acetamide) or 47.5% cationic lipid/10% DSPC/40.7% Cholesterol/1.8% PEG lipid. Relative activity was determined by measuring luciferase expression in the liver 4 hours following administration via tail vein injection as described in Example 1 or by measuring the amount of human IgG in mouse serum as described in example 2. The activity was compared at a dose of 1.0 or 0.5 or 0.3 mg mRNA/kg and expressed as ng luciferase/g liver measured 4 hours after administration, as described in Example 1 or as μg IgG/mL serum measured 24 hours after administration, as described in Example 2. Compound numbers in Table 2 refer to the compound numbers of Table 1.
# [2] = Determination of pKa of formulated lipids (TNS fluorescence assay in lipid nanoparticles); format: physicochemical; conditions: lipid nanoparticles (compound/DSPC/cholesterol/PEG-lipid), lipid formulated in LNP (lipid/DSPC/cholesterol/PEG-lipid), pH at half-maximal intensity
# Protocol: As described elsewhere, the pKa of formulated lipids is correlated with the effectiveness of LNPs for delivery of nucleic acids (see Jayaraman et al, Angewandte Chemie, International Edition (2012), 51(34), 8529-8533; Semple et al, Nature Biotechnology 28, 172-176 (2010)). In some embodiments, the preferred range of pKa is ˜5 to ˜7. The pKa of each lipid is determined in lipid nanoparticles using an assay based on fluorescence of 2-(p-toluidino)-6-napthalene sulfonic acid (TNS). Lipid nanoparticles comprising compound of structure (I)/DSPC/cholesterol/PEG-lipid (50/10/38.5/1.5 or 47.5:10:40.7:1.8 mol %) in PBS at a concentration of 0.4 mM total lipid are prepared using the in-line process as described in Example 1. TNS is prepared as a 100 μM stock solution in distilled water. Vesicles are diluted to 24 μM lipid in 2 mL of buffered solutions containing 10 mM HEPES, 10 mM MES, 10 mM ammonium acetate, and 130 mM NaCl, where the pH ranged from 2.5 to 11. An aliquot of the TNS solution is added to give a final concentration of 1 μM and following vortex mixing fluorescence intensity is measured at room temperature in a SLM Aminco Series 2 Luminescence Spectrophotometer using excitation and emission wavelengths of 321 nm and 445 nm. A sigmoidal best fit analysis is applied to the fluorescence data and the pKa is measured as the pH giving rise to half-maximal fluorescence intensity.
Structure (SMILES),pKa [2],Liver Luc @ 0.3 mg/kg [1] [ng/g],Liver Luc @ 1.0 mg/kg [1] [ng/g],"Liver Luc, *Determined at 0.5 mg/kg [1]"
CCCCCCCCCCN(CCCCCCCCCC)C(=O)CCCCCCCN(C)CCCCCCCC(=O)N(CCCCCCCCC)CCCCCCCCC [Compound I-59],6.27,10786 ± 1924,43489 ± 5698,–
"CCCCCCCCCCN(CCCCCCCCCC)C(=O)CCCCCCCCCN(CCCCCCCCCC(=O)N(CCCCCCCCCC)CCCCCCCCCC)CCCn1ccnc1 [Compound I-57, 10,10′-((3-(1H-imidazol-1-yl)propyl)azanediyl)bis(N,N-didecyldecanamide)]",6.24,476 ± 134,1456 ± 518,–
CCCCCCCCCCN(CCCCCCCCN(C)CCCCCCCCN(CCCCCCCCCC)C(=O)CCCCCCCCC)C(=O)CCCCCCCCC [Compound I-65],6.33,3172 ± 658,24740 ± 6297,–
"CCCCCCCCCCN(CCCCCCCCCC)C(=O)CCCCCCCN(C)CCCCCCCC(=O)N(CCCCCCCCCC)CCCCCCCCCC [Compound I-6, 8,8′-(methylazanediyl)bis(N,N-didecyloctanamide)]",6.19,20084 ± 5967,78367 ± 15904,–
"CCCCCCCCN(CCCCCCCC)C(=O)CCCCCN(CCO)CCCCCC(=O)N(CCCCCCCC)CCCCCCCC [Compound I-3, 6,6′-((2-hydroxyethyl)azanediyl)bis(N,N-dioctylhexanamide)]",6.87,–,–,227 ± 138* ng/g
"CCCCCCCCCCN(CCCCCCCCCC)C(=O)CCCCCCCCCN(CCCCCCCCCC(=O)N(CCCCCCCCCC)CCCCCCCCCC)CCN(C)C [Compound I-28, 10,10′-((2-(dimethylamino)ethyl)azanediyl)bis(N,N-didecyldecanamide)]",6.22,6602 ± 2609,13298 ± 4040,–
"CCCCCCCCN(CCCCCCCC)C(=O)CCCCCCCCCN(C)CCCCCCCCCC(=O)N(CCCCCCCC)CCCCCCCC [Compound I-8, 10,10′-(methylazanediyl)bis(N,N-dioctyldecanamide)]",6.02,8743 ± 2153,37220 ± 15377,–
"CCCCC(CC)CN(CC(CC)CCCC)C(=O)CCCCCN(CCCCO)CCCCCC(=O)N(CC(CC)CCCC)CC(CC)CCCC (stereo not drawn) [Compound I-27, 6,6′-((4-hydroxybutyl)azanediyl)bis(N,N-bis(2-ethylhexyl)hexanamide)]",6.56,–,–,21 ± 6* ng/g
"CCCCCCCCCCN(CCCCCCCCCC)C(=O)CCCCCCCCCN(CCCCCCCCCC(=O)N(CCCCCCCCCC)CCCCCCCCCC)CCCNc1c(NC)c(=O)c1=O [Compound I-60, 10,10′-((3-((2-(methylamino)-3,4-dioxocyclobut-1-en-1-yl)amino)propyl)azanediyl)bis(N,N-didecyldecanamide)]",6.38,2176 ± 162,9178 ± 2483,–
"CCCCCCCCCN(CCCCCCCCC)C(=O)CCCCCCCN(C)CCCCCCCC(=O)N(CCCCCCCCC)CCCCCCCCC [Compound I-58, 8,8′-(methylazanediyl)bis(N,N-dinonyloctanamide)]",6.19,18664 ± 5438,73794 ± 14083,–
"CCCCCCCCCCN(CCCCCCCCCC)C(=O)CCCCCCCCCN(CCO)CCCCCCCCCC(=O)N(CCCCCCCCCC)CCCCCCCCCC [Compound I-20, 10,10′-((2-hydroxyethyl)azanediyl)bis(N,N-didecyldecanamide)]",6.27,–,–,879 ± 365* ng/g
"CCCCCCCCCCNC(=O)CCCCN(CCCCCCCC(=O)N(CCCCCCCCCC)CCCCCCCCCC)CCCCCCCC(=O)N(CCCCCCCCCC)CCCCCCCCCC [Compound I-30, 8,8′-((5-(decylamino)-5-oxopentyl)azanediyl)bis(N,N-didecyloctanamide)]",6.16,6567 ± 1534,19625 ± 2173,–

# The next lines start with results.
pKa [2],Structure (SMILES),Liver Luc @ 0.3 mg/kg [1] [ng/g],Liver Luc @ 1.0 mg/kg [1] [ng/g],"Liver Luc, *Determined at 0.5 mg/kg [1]"
6.83,"CCCCCCCCCCCCCCCC(=O)N(CCCCCC)CCCCCCN(C)CCCCCCN(CCCCCC)C(=O)CCCCCCCCCCCCCCC [Compound I-9, N,N′-((methylazanediyl)bis(hexane-6,1-diyl))bis(N-hexylpalmitamide)]",4337 ± 1394,21023 ± 12693,–
6.77,"CCCCCCCCCCN(CCCCCCCCCC)C(=O)CCCCCN(C)CCCCCC(=O)N(CCCCCCCCCC)CCCCCCCCCC [Compound I-10, 6,6′-(methylazanediyl)bis(N,N-didecylhexanamide)]",10779 ± 2473,22622 ± 8189,–
6.17,"CCCCCCCCC(CCCCCC)C(=O)N(C)CCCCCCCCN(C)CCCCCCCCN(C)C(=O)C(CCCCCC)CCCCCCCC (stereo not drawn) [Compound I-70, N,N′-((methylazanediyl)bis(octane-8,1-diyl))bis(2-hexyl-N-methyldecanamide)]",7516 ± 1487,33238 ± 9902,–
6.43,"CCCCCCCCN(CCCCCCCC)C(=O)CCCCCCCN(C)CCCCCCCC(=O)N(CCCCCCCC)CCCCCCCC [Compound I-7, 8,8′-(methylazanediyl)bis(N,N-dioctyloctanamide)]",16595 ± 836,81021 ± 24105,–
6.59,"CCCCC/C=C\C/C=C\CCCCCCCC(=O)N(CCCCCC)CCCCCCN(C)CCCCCCN(CCCCCC)C(=O)CCCCCCC/C=C\C/C=C\CCCCC [Compound I-14, (9Z,9′Z,12Z,12′Z)—N,N′-((methylazanediyl)bis(hexane-6,1-diyl))bis(N-hexyloctadeca-9,12-dienamide)]",2738 ± 728,5735 ± 2364,–
6.02,"CCCCCCCCN(CCCCCCCC)C(=O)CCCCCCCCCN(CCCCCCO)CCCCCCCCCC(=O)N(CCCCCCCC)CCCCCCCC [Compound I-18, 10,10′-((6-hydroxyhexyl)azanediyl)bis(N,N-dioctyldecanamide)]",7115 ± 2087,14879 ± 1595,–
